# From patent US4080466A, “Pharmaceutical compositions containing 4-hydroxyl-1,3-dithiolan-2-ylidene malonates” (Nihon Nohyaku Co., Ltd., priority 1976, dated 1978)
# “Also recorded” adds a separate entry of the source.
# How the values were obtained:
# [1] = system: acute liver damage induced by carbon tetrachloride; assay: Protective Effect on Acute Liver Damage associated with Centrilobular Necrosis (carbon tetrachloride); format: in vivo, mice (dd-strain); details: 250 mg/kg oral, average of 5 to 6 mice; for Liver damage index: 6 h before CCl4 (0.05 ml/kg oral), score 0 Normal, 2 slight, 4 clear, 6 heavy damage; for p-GPT (plasma glutamic-pyruvic transaminase activity): 6 h before CCl4, 24 h after CCl4, values over 1,000 regarded as 1,000
# Source text: Carbon tetrachloride (CCl4) administration induces centrilobular necrosis of the liver associated with loss of diphosphopyridine nucleotide, hepatic glycogen, coenzyme A and increase in neutral fat. Release of several enzymes from the hepatocytes, and increase of enzyme activities in the plasma are recognized as the result of the damage of the liver. A suitable means for evaluating the degree of damage induced by CCl4 or the degree of protection afforded by drugs is to study the plasma glutamic-pyruvic transminase (p-GPT) activity.
# Methods: The test compounds were dissolved or suspended in olive oil and administered orally at the dose of 250 mg/kg to the mice (Four-week-old male mice-dd strain). After 6 hours, CCl4 was administered orally (0.05 ml/kg as olive oil solution). Animals were killed 24 hours after CCl4 administration, and the liver was grossly observed. The plasma was obtained by centrifugation. Activities of p-GPT were determined by the method of Reitman and Frankel and expressed in Karmen units.
# Score for liver damage index was as follows:
# 4 Clearly observable damage
# Each figure indicates average of 5 to 6 mice. Values of p-GPT over 1,000 Karmen unit regarded as 1,000 for calculation of average for convenience.
# [2] = system: chronic liver damage induced by thioacetamide; assay: Therapeutic Effect on Chronic Liver Damage (thioacetamide), BSP test; format: in vivo, rats (Spraque Dawley strain); details: normal diet + 0.2% of compound after 12 times TAA 100 mg/kg
# Experimental: In the tests of this Example, TAA was repeatedly administered to animals to prepare test animals suffering from somewhat chronic liver damages, and then the present compounds were administered thereto to know whether or not the compounds were effective against chronic hepatitis.
# The degree of the liver damage and the therapeutic effects of the compounds were evaluated according to BSP test. The BSP test is a method in which BSP (sulfobromophthalein sodium), a dye known to be quickly metabolized in and excreted from the liver, is intravenously injected into animals and, after a definite period of time, the blood is taken out to measure the amount of BSP remaining in the plasma. In case the animals are suffering from the lever damage, the dye will remain, according to the degree of the damage, at the stage where a major portion of BSP metabolized and excreted in the case of normal animals.
# Five groups of rats (Spraque Dawley strain) were treated as follows:
# Group A: The rats were orally administered with 100 mg/kg of thioacetamide,at 3 days intervals for 36 days (12 times of the administration), then were submitted for 10 days to a normal diet.
# Group B: The rats were orally administered with 100 mg/kg of thioacetamide at 3 days intervals for 36 days (12 times of the administration), then were submitted for 10 days to the normal diet + 0.2% of compound 4.
# Group C: The rats were orally administered with 100 mg/kg of thioacetamide at 3 days intervals for 36 days (12 times of the administration), then were submitted for 10 days to the normal diet + 0.2% of compound 2.
# Group D: The rats were orally administered with 100 mg/kg of thioacetamide at 3 days intervals for 36 days (12 times of the administration), then were submitted for 10 days to the normal diet + 0.2% of anethol trithion.
# Group E: The rats were submitted to the normal diet as the control.
# Five rats were sacrificed from each group at appropriate intervals for BSP (sulfobromophthalein) test, the results of which were shown as amounts (mg) of BSP remaining in 1 dl of plasma.
# [3] = system: excretion of biliary salt; assay: Cholagogic Action: effect on the excretion of biliary salt; format: in vivo, rats (SD-JCL strain); details: 200 mg/kg oral; for Excretion of biliary salt: before treatment = 100; for Amount of total excreted biliary salts relative to control: 5 hours after administration
# Experimental: (§1) Drugs as choleresis are used for patients to improve bile flow. In the present example, the effect of the compound of the invention on the quantities of bile and biliary salt is investigated. Methods:
# (§2) The male rats (4 week-aged, SD-JCL strain) were anesthetized with sodium pentobarbital (37.5 mg/kg, intraperitoneal injection). The abdominal cavity was opened through a midline incision. The common bile duct was catheterized with polyethylene tube o.d. 0.8 mm. The catheter was brought to the outside through the abdominal incision would prior to closing. Bile was collected from the catheter continuously with time intervals of one hour. The quantity of bile produced in one hour was determined by weighing and that of biliary salt was determined by enzymatic method (Ikagaku Jikkenho Koza 1B, Biological Constituents II, edited by Tamio YAMAKAWA). The amount of biliary salt was represented in the term of cholic acid equivalent.
# (§3) In the representation of the results, the quantities of bile and biliary salt produced in one hour prior to the administration of drug were taken as 100. The compound of this invention was orally administered at the dose of 200 mg/kg. As reference, anethol trithion was used.
# [4] = system: alcohol metabolic function of liver; assay: Effect on Concentration of Ethyl alcohol in the Blood; format: in vivo, mice; details: 250 mg/kg oral, 6 h before ethyl alcohol 1,000 mg/kg
# Experimental: After 6 hours, 1,000 mg/kg of ethyl alcohol was given orally. Blood was taken in a capillary from caudal vein at the time indicated in the results. The plasma was obtained by centrifugation. The concentration of ethyl alcohol in the plasma was measured by FID type gas liquid chromatography. Five mice were used for each group.
# bile flow = assay: Cholagogic Action: effect on bile flow; format: in vivo, rats (SD-JCL strain); details: 200 mg/kg oral; for Bile flow: before treatment = 100; for Quantity of total excreted bile relative to control: 5 hours after administration
# Experimental: as §1, §2, §3
# [5] = system: fatty liver induced by carbon tetrachloride; assay: Therapeutic Effect on Fatty Liver (carbon tetrachloride); format: in vivo, rats (SD strain); details: 10 days; for Degree of fatty liver (histopathological examination): one symbol per animal
# Experimental: Methods: […] The treated animals were left for 3 days after the last administration to maximize the manifestation of fatty liver. […] It was orally given everyday for 10 days at the dose of 50 or 250 mg/kg. On the 11th day, the animals were sacrificed. The therapeutic effect was evaluated by determining the content of liquid in the liver (triglyceride and total lipid) and examining the histopathological changes. Triglyceride and total lipid were determined colorimetrically by chromotropic acid method and Bragdon's oxidation method, respectively. Indices for the histopathological change is as follows: […]
smiles,measurement,setting,value
"CC(C)OC(=O)C(C(=O)OC(C)C)=C1SCC(O)S1 (centres unmarked) [Compound 2, Diisopropyl 4-hydroxy-1,3-dithiolan-2-ylidene malonate]",Liver damage index,[1],0.1
same,p-GPT (plasma glutamic-pyruvic transaminase activity),[1],20 Karmen units
same,BSP remaining in plasma,[2]; 2 days,7.0 ± 2.8 mg/dL
same,BSP remaining in plasma,[2]; 5 days,3.1 ± 0.7 mg/dL
same,BSP remaining in plasma,[2]; 10 days,0.8 ± 0.2 mg/dL
same,Excretion of biliary salt,[3]; 1 hour after treatment,102 ± 7.3
same,Excretion of biliary salt,[3]; 2 hours after treatment,100 ± 5.8
same,Excretion of biliary salt,[3]; 3 hours after treatment,106 ± 7.9
same,Excretion of biliary salt,[3]; 4 hours after treatment,97 ± 7.2
same,Amount of total excreted biliary salts relative to control,[3],1.43 times
same,Excretion of biliary salt,[3]; 5 hours after treatment,90 ± 5.3
same,Concentration of Ethyl alcohol in Plasma,[4]; 0 min,10±7 ppm
same,Concentration of Ethyl alcohol in Plasma,[4]; 5 min,711±95 ppm
same,Concentration of Ethyl alcohol in Plasma,[4]; 15 min,558±104 ppm
same,Concentration of Ethyl alcohol in Plasma,[4]; 30 min,426±96 ppm
same,Concentration of Ethyl alcohol in Plasma,[4]; 60 min,13±6 ppm
same,Bile flow,bile flow; 1 hour after treatment,112 ± 2.4
same,Bile flow,bile flow; 2 hours after treatment,117 ± 6.8
same,Bile flow,bile flow; 3 hours after treatment,101 ± 7.0
same,Bile flow,bile flow; 4 hours after treatment,97 ± 8.3
same,Quantity of total excreted bile relative to control,bile flow,1.13 times
same,Bile flow,bile flow; 5 hours after treatment,80 ± 7.3
same,Total lipid,[5]; 50 mg/kg oral,82.3 ± 15.1 mg/g-liver
same,Triglyceride,[5]; 50 mg/kg oral,38.6 ± 8.5 mg/g-liver
same,Degree of fatty liver (histopathological examination),[5]; 50 mg/kg oral,± ± + ± ± + ±
same,Total lipid,[5]; 250 mg/kg oral,68.3 ± 10.3 mg/g-liver
same,Triglyceride,[5]; 250 mg/kg oral,21.6 ± 7.3 mg/g-liver
same,Degree of fatty liver (histopathological examination),[5]; 250 mg/kg oral,- - ± ± ± ± -
"CCOC(=O)C(C(=O)OC(C)C)=C1SCC(O)S1 (centres unmarked) [Compound 4, Ethyl isopropyl 4-hydroxy-1,3-dithiolan-2-ylidene malonate]",Liver damage index,[1],0.1
same,p-GPT (plasma glutamic-pyruvic transaminase activity),[1],40 Karmen units
same,BSP remaining in plasma,[2]; 2 days,7.2 ± 1.2 mg/dL
same,BSP remaining in plasma,[2]; 5 days,3.6 ± 0.5 mg/dL
same,BSP remaining in plasma,[2]; 10 days,0.3 ± 0.1 mg/dL
same,Excretion of biliary salt,[3]; 1 hour after treatment,100 ± 7.2
same,Excretion of biliary salt,[3]; 2 hours after treatment,106 ± 7.8
same,Excretion of biliary salt,[3]; 3 hours after treatment,98 ± 4.3
same,Excretion of biliary salt,[3]; 4 hours after treatment,90 ± 7.7
same,Amount of total excreted biliary salts relative to control,[3],1.37 times
same,Excretion of biliary salt,[3]; 5 hours after treatment,82 ± 6.8
same,Concentration of Ethyl alcohol in Plasma,[4]; 0 min,9±4 ppm
same,Concentration of Ethyl alcohol in Plasma,[4]; 5 min,730±92 ppm
same,Concentration of Ethyl alcohol in Plasma,[4]; 15 min,536±113 ppm
same,Concentration of Ethyl alcohol in Plasma,[4]; 30 min,373±105 ppm
same,Concentration of Ethyl alcohol in Plasma,[4]; 60 min,7±2 ppm
same,Bile flow,bile flow; 1 hour after treatment,108 ± 2.1
same,Bile flow,bile flow; 2 hours after treatment,120 ± 7.7
same,Bile flow,bile flow; 3 hours after treatment,107 ± 6.8
same,Bile flow,bile flow; 4 hours after treatment,98 ± 7.2
same,Quantity of total excreted bile relative to control,bile flow,1.11 times
same,Bile flow,bile flow; 5 hours after treatment,88 ± 5.3
same,Total lipid,[5]; 50 mg/kg oral,87.6 ± 7.2 mg/g-liver
same,Triglyceride,[5]; 50 mg/kg oral,40.6 ± 8.2 mg/g-liver
same,Degree of fatty liver (histopathological examination),[5]; 50 mg/kg oral,+ + + ++; also recorded: ± ± + ± ± ± +
same,Total lipid,[5]; 250 mg/kg oral,70.3 ± 7.7 mg/g-liver
same,Triglyceride,[5]; 250 mg/kg oral,25.3 ± 4.2 mg/g-liver
same,Degree of fatty liver (histopathological examination),[5]; 250 mg/kg oral,± ± ± - - - ±
